Measured values taken from patent US20130035326A1 (AMBIT BIOSCIENCES CORPORATION, priority 2009, published 2013).

What was measured:
[1] = target: T1, KIT kinase (Homo sapiens, UniProt P10721); experiment: Competition binding assay, KIT Kd
T1 construct: made in house; host or cells: T7 phage display or HEK-293 cells
Procedure: (§1) In certain embodiments, competition binding assays were performed as described in Fabian et al., Nature Biotechnology 2005, 23,329-336.
(§2) Competition binding assays used herein were developed, validated and performed as described in Fabian et al., Nature Biotechnology 2005, 23,329-336. Kinases were produced as fusions to T7 phage (See, Fabian et al. or WO04/015142) or alternatively, the kinases were expressed in HEK-293 cells and subsequently tagged with DNA for PCR detection (See, WO08/005,310). For the binding assays, streptavidin-coated magnetic beads were treated with biotinylated affinity ligands for 30 min at room temperature to generate affinity resins. The liganded beads were blocked with excess biotin and washed with blocking buffer (SeaBlock (Pierce), 1% BSA, 0.05% Tween 20, 1 mM DTT) to remove unbound ligand and to reduce non-specific binding. Binding reactions were assembled by combining kinase, liganded affinity beads, and test compounds in 1× binding buffer (20% SeaBlock, 0.17×PBS, 0.05% Tween 20, 6 mM DTT). Test compounds were prepared as 100× stocks in DMSO and diluted into the aqueous environment. Kds were determined using an eleven point threefold serial dilutions. DMSO or control compounds were was added to control assays lacking a test compound. Primary screen assays were performed in polypropylene 384-well plates in a final volume of 20-40 μL, while Kd determinations were performed in polystyrene 96-well plates in a final volume of 135 μL. The assay plates were incubated at room temperature with shaking for 1 hour to allow the binding reactions to reach equilibrium, and the affinity beads were washed extensively with wash buffer (1×PBS, 0.05% Tween 20) to remove unbound protein. The beads were then resuspended in elution buffer (1×PBS, 0.05% Tween 20, 0.5 μM non-biotinylated affinity ligand) and incubated at room temperature with shaking for 30 min. The kinase concentration in the eluates was measured by quantitative PCR.

[2] = target: T2, CSF-1R kinase (Homo sapiens, UniProt P07333); experiment: Competition binding assay, CSF-1R Kd
T2 construct: made in house; host or cells: T7 phage display or HEK-293 cells
Procedure: as §1, §2

[3] = tested on: MV4-11 cells; experiment: MV4-11 cell proliferation assay (Alamar Blue); format: cell-based; settings: Homo sapiens, MV4-11, 72 h, 3 days incubation
Procedure: The compounds disclosed herein were tested in an MV4-11 cell proliferation assay to determine their cellular potency against Flt3. MV4-11 cells carry ITD mutation within juxtamembrane domain of Flt3 kinase which renders the kinase constitutively active. […] This assay measures the potency of compounds as Flt3 inhibitors by measuring the reduction of Alamar Blue reagent by viable cells.
MV4-11 cells were grown in an incubator at 37° C. under 5% CO2 in Iscove's media (Celgro) with 10% FBS. The cell density was kept between 1e5 and 8e5 cells/mL.
On day one of the experiment, cells were harvested and spun at 500 g for 5 min at 4° C., the supernatant aspirated and the cells resuspended in Iscove's media with 0.5% FBS. Cell density was maintained at 7.5e5 to achieve maximum viability of the cells. The resuspended cells were incubated at 37° C. in 5% CO2 overnight.
On day two of the experiment, cells were diluted to 6.4e5/mL with Iscove's media with 0.5% FBS. 100 μL of the cell suspension (64,000 cells) were aliquoted into each well of a 96-well TC-treated plate. Compounds were added at 9 different concentrations, with half-log intervals alongside a control reference compound serving as a positive control. Final DMSO concentration was kept at 0.5% and final volume at 200 μL. The cells were then incubated at 37° C. under 5% CO2 for 3 days.
On day five of the experiment, 40 μL of Alamar Blue reagent was added to each well and the mixture was allowed to incubate for 3 hours. Alamar Blue fluorescence was measured using SoftMax Pro software at 560 nm (excitation) and 590 nm (emission). IC50s were generated as an average of duplicates and represents the concentration of test compound that achieves 50% inhibition of cellular proliferation compared to negative control.

[4] = target: T3, FLT3 kinase (Homo sapiens, UniProt P36888); experiment: Competition binding assay, FLT3 Kd
T3 construct: made in house; host or cells: T7 phage display or HEK-293 cells
T3 sequence (P36888 27-993): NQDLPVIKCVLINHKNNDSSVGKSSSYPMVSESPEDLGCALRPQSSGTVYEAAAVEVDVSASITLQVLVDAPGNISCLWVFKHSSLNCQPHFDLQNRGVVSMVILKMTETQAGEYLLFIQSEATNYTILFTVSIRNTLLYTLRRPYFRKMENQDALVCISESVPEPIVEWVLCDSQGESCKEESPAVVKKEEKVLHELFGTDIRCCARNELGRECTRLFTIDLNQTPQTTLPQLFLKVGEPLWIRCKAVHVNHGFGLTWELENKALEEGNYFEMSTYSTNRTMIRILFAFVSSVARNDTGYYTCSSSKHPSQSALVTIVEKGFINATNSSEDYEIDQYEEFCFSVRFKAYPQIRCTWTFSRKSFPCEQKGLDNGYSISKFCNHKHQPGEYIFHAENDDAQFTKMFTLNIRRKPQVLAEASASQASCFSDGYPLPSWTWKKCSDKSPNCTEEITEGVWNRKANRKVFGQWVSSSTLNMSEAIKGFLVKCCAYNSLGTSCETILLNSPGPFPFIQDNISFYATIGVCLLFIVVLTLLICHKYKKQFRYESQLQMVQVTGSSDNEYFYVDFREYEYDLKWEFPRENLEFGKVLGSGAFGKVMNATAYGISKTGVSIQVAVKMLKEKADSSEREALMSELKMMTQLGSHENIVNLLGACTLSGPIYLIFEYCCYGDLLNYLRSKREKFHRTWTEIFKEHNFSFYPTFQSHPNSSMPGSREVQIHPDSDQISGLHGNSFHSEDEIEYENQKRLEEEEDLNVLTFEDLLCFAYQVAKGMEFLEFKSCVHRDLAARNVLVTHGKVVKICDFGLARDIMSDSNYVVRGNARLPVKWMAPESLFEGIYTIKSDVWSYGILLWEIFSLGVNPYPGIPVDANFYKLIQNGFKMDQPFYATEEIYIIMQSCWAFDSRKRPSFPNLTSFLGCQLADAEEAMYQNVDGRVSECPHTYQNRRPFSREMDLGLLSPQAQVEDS
Procedure: as §1, §2

T2 sequence (P07333 20-972): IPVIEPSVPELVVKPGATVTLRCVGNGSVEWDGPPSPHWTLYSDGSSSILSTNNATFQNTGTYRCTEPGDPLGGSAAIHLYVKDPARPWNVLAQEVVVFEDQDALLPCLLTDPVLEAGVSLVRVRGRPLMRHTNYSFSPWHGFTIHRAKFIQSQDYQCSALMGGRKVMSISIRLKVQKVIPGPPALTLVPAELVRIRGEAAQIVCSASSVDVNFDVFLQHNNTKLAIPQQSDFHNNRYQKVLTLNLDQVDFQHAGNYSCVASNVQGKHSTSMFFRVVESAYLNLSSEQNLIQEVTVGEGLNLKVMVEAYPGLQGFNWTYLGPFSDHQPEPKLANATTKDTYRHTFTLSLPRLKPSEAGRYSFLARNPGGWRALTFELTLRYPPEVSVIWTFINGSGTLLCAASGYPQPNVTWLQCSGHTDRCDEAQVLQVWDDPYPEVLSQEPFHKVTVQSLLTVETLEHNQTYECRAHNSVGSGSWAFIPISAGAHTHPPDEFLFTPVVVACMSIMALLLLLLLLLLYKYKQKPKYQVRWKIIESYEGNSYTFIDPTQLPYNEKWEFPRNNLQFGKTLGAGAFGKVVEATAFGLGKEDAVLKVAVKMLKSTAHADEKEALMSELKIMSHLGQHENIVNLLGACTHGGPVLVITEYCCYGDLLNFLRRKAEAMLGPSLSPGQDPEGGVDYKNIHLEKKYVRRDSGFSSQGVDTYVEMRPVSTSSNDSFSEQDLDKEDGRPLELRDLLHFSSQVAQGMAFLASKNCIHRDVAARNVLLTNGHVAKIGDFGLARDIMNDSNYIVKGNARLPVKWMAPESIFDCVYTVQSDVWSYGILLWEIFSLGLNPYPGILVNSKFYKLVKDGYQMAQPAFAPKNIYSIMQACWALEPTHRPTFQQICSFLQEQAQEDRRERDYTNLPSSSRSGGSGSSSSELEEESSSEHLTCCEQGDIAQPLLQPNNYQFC
T1 sequence (P10721 26-976): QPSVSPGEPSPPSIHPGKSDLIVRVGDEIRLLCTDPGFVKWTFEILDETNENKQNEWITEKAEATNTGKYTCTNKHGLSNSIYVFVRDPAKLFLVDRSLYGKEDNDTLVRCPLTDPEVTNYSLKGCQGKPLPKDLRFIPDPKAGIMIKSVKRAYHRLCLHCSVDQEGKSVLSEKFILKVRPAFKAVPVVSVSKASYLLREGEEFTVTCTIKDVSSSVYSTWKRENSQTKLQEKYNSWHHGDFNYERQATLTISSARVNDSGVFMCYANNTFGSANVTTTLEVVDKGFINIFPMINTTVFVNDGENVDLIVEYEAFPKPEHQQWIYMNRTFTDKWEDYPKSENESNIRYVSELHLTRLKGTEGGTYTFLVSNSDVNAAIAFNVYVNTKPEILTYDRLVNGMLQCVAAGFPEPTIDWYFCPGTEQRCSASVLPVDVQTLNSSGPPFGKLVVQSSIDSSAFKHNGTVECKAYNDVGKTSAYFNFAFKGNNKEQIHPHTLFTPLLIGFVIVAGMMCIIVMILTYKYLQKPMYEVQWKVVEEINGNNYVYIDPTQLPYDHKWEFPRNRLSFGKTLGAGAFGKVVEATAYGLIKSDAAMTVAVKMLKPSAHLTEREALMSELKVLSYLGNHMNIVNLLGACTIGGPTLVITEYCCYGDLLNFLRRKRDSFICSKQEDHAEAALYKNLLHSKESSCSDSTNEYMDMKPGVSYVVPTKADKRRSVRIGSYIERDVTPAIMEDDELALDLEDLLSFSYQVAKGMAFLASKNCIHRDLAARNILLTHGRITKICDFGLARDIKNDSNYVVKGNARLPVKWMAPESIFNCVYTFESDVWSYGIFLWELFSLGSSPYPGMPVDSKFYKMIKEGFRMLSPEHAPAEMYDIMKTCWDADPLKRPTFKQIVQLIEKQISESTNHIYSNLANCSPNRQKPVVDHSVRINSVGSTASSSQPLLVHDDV

| SMILES | Kd [1] [nM] | Kd [2] [nM] | IC50 [3] [nM] | Kd [4] [nM] |
| --- | --- | --- | --- | --- |
| Nc1ccc(-c2ccc(NC(=O)Nc3cc(C4(C(F)(F)F)CC4)on3)nc2)cn1 [Example 40, 1-(6′-amino-3,3′-bipyridin-6-yl)-3-(5-(1-(trifluoromethyl)cyclopropyl)isoxazol-3-yl)urea] | ≤ 1 | ≤ 10 | 1 to 10 | ≤ 1 |
| CC(CF)(CF)c1cc(NC(=O)Nc2ccc(-c3ccc(N)nc3)cn2)no1 [Example 41, 1-(6′-amino-3,3′-bipyridin-6-yl)-3-(5-(1,3-difluoro-2-methylpropan-2-yl)isoxazol-3-yl)urea] | ≤ 1 | ≤ 10 | 1 to 10 | ≤ 1 |
| CS(=O)(=O)CCNc1ccc(-c2ccc(CC(=O)Nc3cc(C4(C(F)(F)F)CC4)on3)cc2)cn1 [Example 188] | 1 to 10 | 10 to 100 | ≤ 1 |  |
| Nc1cc(F)c(-c2ccc(CC(=O)Nc3cc(C4(C(F)(F)F)CC4)on3)cc2)cn1 [Example 189] | 1 to 10 | ≤ 10 | ≤ 1 |  |
| CC(C)(C)c1cc(NC(=O)Cc2ccc(-c3cnc4ccc(=O)[nH]c4c3)cc2)no1 [Example 191] |  |  | 1 to 10 |  |

Results, then the molecule that gave them:

| Kd [1] [nM] | Kd [2] [nM] | IC50 [3] [nM] | Kd [4] [nM] | SMILES |
| --- | --- | --- | --- | --- |
| 1 to 10 | ≤ 10 | ≤ 1 | ≤ 1 | CC(C)(c1cc(NC(=O)Nc2ccc(-c3ccc(N)nc3)cc2)no1)C(F)(F)F [Example 35, methanesulfonate] |
| ≤ 1 | ≤ 10 | 1 to 10 | ≤ 1 | O=C(Nc1ccc(-c2ccc(NCCN3CCOCC3)nc2)cc1)Nc1cc(C2(C(F)(F)F)CC2)on1 [Example 36, 4-(2-(5-(4-(3-(5-(1-(trifluoromethyl)cyclopropyl)isoxazol-3-yl)ureido)phenyl)pyridin-2-ylamino)ethyl)morpholin-4-ium methanesulfonate] |
| ≤ 1 | ≤ 10 | 1 to 10 | ≤ 1 | CC(CF)(CF)c1cc(NC(=O)Nc2ccc(-c3ccc(NCCN4CCOCC4)nc3)cc2)no1 [Example 37, 4-(2-(5-(4-(3-(5-(1,3-difluoro-2-methylpropan-2-yl)isoxazol-3-yl)ureido)phenyl)pyridin-2-ylamino)ethyl)morpholin-4-ium methanesulfonate] |
| ≤ 1 | ≤ 10 | 10 to 100 | 1 to 10 | CC(C)(F)c1cc(NC(=O)Nc2ccc(-c3ccc(NCCN4CCOCC4)nc3)cc2)on1 [Example 38, 4,4-(2-(5-(4-(3-(3-(2-fluoropropan-2-yl)isoxazol-5-yl)ureido)phenyl)pyridin-2-ylamino)ethyl)morpholin-4-ium methanesulfonate] |
| 1 to 10 | ≤ 10 | 1 to 10 | ≤ 1 | CC(C)(c1cc(NC(=O)Nc2ccc(-c3ccc(NCCN4CCOCC4)nc3)cc2)no1)C(F)(F)F [Example 39, 4-(2-(5-(4-(3-(5-(1,1,1-trifluoro-2-methylpropan-2-yl)isoxazol-3-yl)ureido)phenyl)pyridin-2-ylamino)ethyl)morpholin-4-ium methanesulfonate] |
